# Assay results taken from US6303630A, “Diarylsulfone non-nucleoside reverse transcriptase inhibitors of human immunodeficiency virus” (University of the Sciences in Philadelphia, priority 2000, dated 2001).
# Like-named read-outs stand apart in the source and are kept apart here.
# Key:
# HIV-1 = experiment: NCI in vitro anti-HIV drug screen: XTT-formazan assay, protection of T4 lymphocytes (CEM) from HIV-1 cytopathic effects; format: cell-based, human immunodeficiency virus (HIV-1); conditions: for EC50 / inhibition at 200 µM / inhibition at 20 µM / inhibition at 2 µM / inhibition at 0.2 µM / inhibition at 63.2 µM / inhibition at 6.33 µM / inhibition at 0.0635 µM / inhibition at 0.634 µM: Human immunodeficiency virus 1, CCRF-CEM; for EC50: 144 h, HIV-1 infected CEM cells, 6 days, XTT, approximate values, read-out: EC50 (50% effective concentration against HIV cytopathic effects); for inhibition at 2 µM / activity at 2 µM: dose 2.00 × 10^-6 Molar; for inhibition at 6.33 µM / activity at 6.33 µM: dose 6.33 × 10^-6 Molar; for activity at 200 µM / activity at 20 µM / activity at 2 µM / activity at 0.2 µM / activity at 63.2 µM / activity at 6.33 µM / activity at 0.634 µM / activity at 0.0635 µM: Human immunodeficiency virus 1, Lymphocyte, read-out: Percent of Control, Infected; for TI50 (IC/EC), Therapeutic Index: IC50/EC50
# Protocol: Compounds of the present invention were evaluated for anti-HIV efficacy by the National Cancer Institute's (NCI) In Vitro Anti AIDS Drug Discovery Program.
# (§1) The NCI procedure is fully described, for example, in a bulletin provided by the National Institutes of Health, National Cancer Institute, Bethesda, Md. 20892, all of which is incorporated herein by reference. As related in the NCI bulletin, the procedure is based on O. W. Weislow et al., "New soluble-formazan assay for HIV-1 cytopathic effects: application to high flux screening of synthetic and natural products for AIDS-antiviral activity", J. Natl. Cancer Inst. 81:577-586 (1989), and is used to test for compounds active against human immunodeficiency virus (HIV), and is designed to detect compounds active at any stage of the virus reproductive cycle. As further related in the NCI bulletin, the assay includes killing of T4 lymphocytes by HIV. Amounts of HIV are added to cells, with a minimum of two cycles of virus reproduction found to be necessary to obtain the required cell killing. Compounds that interact with virions, cells, or virus gene-products to interfere with viral activities will protect cells from cytolysis. All were compared with a positive (e.g., AZT-treated) control evaluation at the same time under identical conditions. The procedure is set forth as follows:
# (§2) A candidate compound is first dissolved in a suitable solvent, preferably dimethyl sulfoxide, then diluted 1:100 in cell culture medium before preparing serial half-log10 dilutions. T4 lymphocytes (CEM cell line) are then added and after a brief interval HIV-1 is added, resulting in a 1:200 final dilution of the compound. Uninfected cells with the compound serve as a toxicity control, and infected and uninfected without the compound serve as basic controls. Cultures are then incubated at 37° in a 5% carbon dioxide atmosphere for 6 days. The tetrazolium salt, XTT, is added to all wells, and cultures are incubated to allow formazan color development by viable cells. Individual wells are analyzed spectrophotometrically to quantitate formazan product, and in addition are viewed microscopically for detection of viable cells and confirmation of protective activity. Drug-treated virus-infected cells are compared with drug-treated noninfected cells and with other appropriate controls (untreated infected and untreated noninfected cells, drug-containing wells without cells, etc.) on the same plate. Data are reviewed in comparison with other tests performed at the same time and a determination as to activity is made.
# [1] = system: T4 lymphocytes (CEM cell line); experiment: Cell growth / toxicity control in uninfected T4 lymphocytes (CEM), XTT-formazan; format: cell-based; conditions: for IC50: uninfected CEM cells, 6 days, XTT, approximate values, read-out: IC50 (50% inhibitory concentration for cell growth); for activity at 200 µM / activity at 20 µM / activity at 2 µM / activity at 0.2 µM / activity at 63.2 µM / activity at 6.33 µM / activity at 0.634 µM / activity at 0.0635 µM: read-out: Percent of Control, Uninfected; for activity at 2 µM: dose 2.00 × 10^-6 Molar; for activity at 0.2 µM: dose 2.00 × 10^-7 Molar; for activity at 63.2 µM: dose 6.32 × 10^-5 Molar; for activity at 0.634 µM: dose 6.34 × 10^-7 Molar; for activity at 0.0635 µM: dose 6.35 × 10^-8 Molar
# Text: as §1, §2
# [2] = dose 2.00 × 10^-4 Molar, read-out: Percent of Protection
# [3] = dose 2.00 × 10^-5 Molar, read-out: Percent of Protection
# [4] = read-out: Percent of Protection
# [5] = dose 2.00 × 10^-7 Molar, read-out: Percent of Protection
# [6] = dose 6.32 × 10^-5 Molar, read-out: Percent of Protection
# [7] = dose 6.35 × 10^-8 Molar, read-out: Percent of Protection
# [8] = Homo sapiens, CCRF-CEM, dose 2.00 × 10^-4 Molar
# [9] = Homo sapiens, CCRF-CEM, dose 2.00 × 10^-5 Molar
# [10] = Homo sapiens, CCRF-CEM, dose 6.33 × 10^-6 Molar
# [11] = dose 2.00 × 10^-4 Molar, listed as Example 21
# [12] = dose 2.00 × 10^-5 Molar, listed as Example 21
# [13] = dose 6.34 × 10^-7 Molar, read-out: Percent of Protection
SMILES,EC50 (HIV-1),inhibition at 200 µM (HIV-1; [2]),inhibition at 20 µM (HIV-1; [3]),inhibition at 2 µM (HIV-1; [4]),inhibition at 0.2 µM (HIV-1; [5]),inhibition at 63.2 µM (HIV-1; [6]),inhibition at 6.33 µM (HIV-1; [4]),inhibition at 0.0635 µM (HIV-1; [7]),activity at 200 µM (HIV-1; dose 2.00 × 10^-4 Molar),activity at 20 µM (HIV-1; dose 2.00 × 10^-5 Molar),activity at 2 µM (HIV-1),activity at 0.2 µM (HIV-1; dose 2.00 × 10^-7 Molar),activity at 63.2 µM (HIV-1; dose 6.32 × 10^-5 Molar),activity at 6.33 µM (HIV-1),activity at 0.634 µM (HIV-1; dose 6.34 × 10^-7 Molar),"activity at 2 µM ([1]; Homo sapiens, CCRF-CEM)","activity at 0.2 µM ([1]; Homo sapiens, CCRF-CEM)","activity at 63.2 µM ([1]; Homo sapiens, CCRF-CEM)","activity at 0.634 µM ([1]; Homo sapiens, CCRF-CEM)","activity at 0.0635 µM ([1]; Homo sapiens, CCRF-CEM)",further results
"CNc1ccc(Cl)cc1S(=O)(=O)c1ccccc1 [Compound 57, 2-phenylsulfonyl-4-chloro-N-methylaniline]",9.84 µM,22%,94%,2.94%,0.57%,91.9%,22.9%,-1.32%,27.5%,94.4%,9.73%,7.53%,92.5%,28.3%,5.9%,91.5%,92%,97.2%,86.4%,91.9%,"inhibition at 0.634 µM (HIV-1; read-out: Percent of Protection, dose 6.34 × 10^-7 Molar): -1.18%; activity at 0.0635 µM (HIV-1; dose 6.35 × 10^-8 Molar): 5.77%; TI50 (IC/EC), Therapeutic Index (HIV-1): > 2.03 × 10^-1; IC50 ([1]; Homo sapiens, CCRF-CEM, 144 h): > 200 µM; activity at 200 µM [1, 8]: 75.9%; activity at 20 µM [1, 9]: 87.2%; activity at 6.33 µM [1, 10]: 89.6%"
"CNc1ccccc1S(=O)(=O)c1ccccc1[N+](=O)[O-] [Compound 66, 2-(2-nitrophenylsulfonyl)-N-methylaniline]",1.02 µM,–,–,93.1%,–,–,107%,–,–,–,93.8%,–,–,106%,–,101%,105%,23.9%,99.4%,98.5%,"TI50 (IC/EC), Therapeutic Index (HIV-1; listed as Example 21): 4.24 × 10^+1; Percent of Protection (HIV-1; dose 2.00 × 10^-4 Molar, 200 µM, listed as Example 21, 200 µM): -15.92%; Percent of Control, Infected (HIV-1; [11]): -4.33%; Percent of Protection (HIV-1; dose 2.00 × 10^-5 Molar, 20 µM, listed as Example 21, 20 µM): 98.73%; Percent of Control, Infected (HIV-1; [12]): 98.86%; Percent of Protection (HIV-1; dose 2.00 × 10^-7 Molar, 0.2 µM, listed as Example 21, 0.2 µM): 4.77%; Percent of Control, Infected (HIV-1; dose 2.00 × 10^-7 Molar, listed as Example 21): 14.29%; Percent of Protection (HIV-1; dose 6.32 × 10^-5 Molar, 63.2 µM, listed as Example 21, 63.2 µM): 24.17%; Percent of Control, Infected (HIV-1; dose 6.32 × 10^-5 Molar, listed as Example 21): 31.75%; Percent of Protection (HIV-1; dose 6.34 × 10^-7 Molar, 0.634 µM, listed as Example 21, 0.634 µM): 19.34%; Percent of Control, Infected (HIV-1; dose 6.34 × 10^-7 Molar, listed as Example 21): 27.41%; Percent of Protection (HIV-1; dose 6.35 × 10^-8 Molar, 0.0635 µM, listed as Example 21, 0.0635 µM): 2.40%; Percent of Control, Infected (HIV-1; dose 6.35 × 10^-8 Molar, listed as Example 21): 12.16%; Percent of Control, Uninfected [1, 11]: -4.40%; Percent of Control, Uninfected [1, 12]: 104.09%; Percent of Control, Uninfected ([1]; dose 6.33 × 10^-6 Molar, listed as Example 21): 109.40%; IC50 ([1]; listed as Example 21): 43.5 µM"
"CNc1ccc(Cl)cc1S(=O)(=O)c1ccccc1[N+](=O)[O-] [Compound 72, 2-(2-nitrophenylsulfonyl)4-chloro-N-methylaniline]",0.075 µM,74%,84%,93.4%,76%,85.5%,93.3%,46.1%,74.5%,84.3%,93.6%,76.5%,85.8%,93.4%,102%,95.8%,102%,97%,101%,99%,"inhibition at 0.634 µM (HIV-1; [13]): 102%; activity at 0.0635 µM (HIV-1; dose 6.35 × 10^-8 Molar): 47.1%; TI50 (IC/EC), Therapeutic Index (HIV-1): > 2.67 × 10^+3; IC50 ([1]; Homo sapiens, CCRF-CEM, 144 h): > 200 µM; activity at 200 µM [1, 8]: 84%; activity at 20 µM [1, 9]: 93.6%; activity at 6.33 µM [1, 10]: 101%"
"CNc1ccc(S(=O)(=O)c2ccccc2[N+](=O)[O-])cc1Cl [Compound 77, 4-(2-nitrophenylsulfonyl)-2-chloro-N-methylaniline]",0.119 µM,100%,96.7%,100%,82%,106%,99.5%,12.3%,100%,96.8%,100%,82.9%,106%,99.5%,90.3%,110%,106%,95.2%,107%,111%,"inhibition at 0.634 µM (HIV-1; [13]): 89.8%; activity at 0.0635 µM (HIV-1; dose 6.35 × 10^-8 Molar): 16.7%; TI50 (IC/EC), Therapeutic Index (HIV-1): > 1.69 × 10^+3; IC50 ([1]; Homo sapiens, CCRF-CEM, 144 h): > 200 µM; activity at 200 µM [1, 8]: 111%; activity at 20 µM [1, 9]: 89.7%; activity at 6.33 µM [1, 10]: 100%"
